Series [1] can be described thus: In vitro dissolution test. The settings on record: 100 rpm, n=3. In kind it is physicochemical.
A short description of series [2]: Pharmacokinetic study of LUT and LUT-NS-LP in rats. In kind it is in vivo, Sprague-Dawley (SD) rats.
The conditions of series [3]: PBPK model input; ATV value marked (acid); ref Drugbank; cited from earlier work.
For series [4] the following is noted: stated in the discussion without reference; species not given; cited from earlier work.
The test system of series [5] is CYP450s of Rat Liver Microsomes (RLMs). In words: In vitro CYP450 metabolism of ATV and inhibition by LUT in rat liver microsomes. The settings on record: CYP450s mixture of RLMs, Lineweaver-Burk plots.
[6] abbreviates: male, Sprague-Dawley, rat, plasma, po, 200 mg/kg.

Marks after values point to notes of the source that are not given here.

Take `O=c1cc(-c2ccc(O)c(O)c2)oc2cc(O)cc(O)c12` [LUT, Luteolin]: in series [1] (pH 1.2 buffer containing 0.05% Tween 80, after 120 min, 37°C), the Drug release was 36.58 ± 0.99%. This compound also displayed a Drug release in series [1] (pH 6.8 phosphate buffer containing 0.05% Tween 80, 37°C) of 59.10 ± 3.13%. In addition, in series [2] (setting [6]), the AUC(0-inf) came out at 4230 ± 1510 ng·h/mL, the AUC(0-t) is 3840 ± 1390 ng·h/mL, the apparent clearance (CL/F) is 880 mL/min/kg and the highest level (Cmax) was 1140 ± 320 ng/mL. Also, in series [2] (setting [6]), the MRT inf turned out to be 4.02 ± 1.68 h, the MRT last stood at 2.88 ± 0.96 h, the Tmax worked out at 0.92 ± 0.59 h and the Vd/F was determined as 178 ± 85.1 L/kg. In series [2] (setting [6]), this compound gave a half-life of 2.6 ± 1.52 h. Besides, the “F (bioavailability)” value in series [2] (relative to LUT, rats, oral 200 mg/kg) is reported as 1 fold. In series [3], the pKa is recorded as 6.57^a. For the same compound, the Oral absolute bioavailability result in series [4] is “under 5%”. Also, in series [5], the “Form of inhibition of ATV metabolism by LUT” value is listed as “non-competitive”.

The values are drawn from PMC11881160 (International Journal of Nanomedicine, 2025).
